This assay addresses T1, PI3Kγ (p101/p110γ protein) (Homo sapiens, UniProt P48736).
T1 construct: HA; made in house; host or cells: Spodoptera frugiperda (Sf9) cells, baculovirus co-infection
Briefly: PI3Kγ In Vitro Kinase Assay. Type of assay: biochemical. To be noted: purified recombinant p101/p110γ with G protein β1/γ2 subunits; 20 μM ATP, 25 μM PIP2; 20 minutes at room temperature. The procedure, abridged: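 Sf9-expressed, purified human p101/p110γ (2.7 nM) was activated by Gβ1/γ2 (57.7 nM) and reacted with 20 μM ATP plus [γ-32P]ATP on PIP2 (25 μM)/PE (300 μM) micelles with 10 mM MgCl2 in HEPES buffer. Reactions ran 20 min at room temperature. Filter-captured radiolabeled PIP3 was counted by scintillation.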

T1 sequence (P48736 whole entry, species assumed): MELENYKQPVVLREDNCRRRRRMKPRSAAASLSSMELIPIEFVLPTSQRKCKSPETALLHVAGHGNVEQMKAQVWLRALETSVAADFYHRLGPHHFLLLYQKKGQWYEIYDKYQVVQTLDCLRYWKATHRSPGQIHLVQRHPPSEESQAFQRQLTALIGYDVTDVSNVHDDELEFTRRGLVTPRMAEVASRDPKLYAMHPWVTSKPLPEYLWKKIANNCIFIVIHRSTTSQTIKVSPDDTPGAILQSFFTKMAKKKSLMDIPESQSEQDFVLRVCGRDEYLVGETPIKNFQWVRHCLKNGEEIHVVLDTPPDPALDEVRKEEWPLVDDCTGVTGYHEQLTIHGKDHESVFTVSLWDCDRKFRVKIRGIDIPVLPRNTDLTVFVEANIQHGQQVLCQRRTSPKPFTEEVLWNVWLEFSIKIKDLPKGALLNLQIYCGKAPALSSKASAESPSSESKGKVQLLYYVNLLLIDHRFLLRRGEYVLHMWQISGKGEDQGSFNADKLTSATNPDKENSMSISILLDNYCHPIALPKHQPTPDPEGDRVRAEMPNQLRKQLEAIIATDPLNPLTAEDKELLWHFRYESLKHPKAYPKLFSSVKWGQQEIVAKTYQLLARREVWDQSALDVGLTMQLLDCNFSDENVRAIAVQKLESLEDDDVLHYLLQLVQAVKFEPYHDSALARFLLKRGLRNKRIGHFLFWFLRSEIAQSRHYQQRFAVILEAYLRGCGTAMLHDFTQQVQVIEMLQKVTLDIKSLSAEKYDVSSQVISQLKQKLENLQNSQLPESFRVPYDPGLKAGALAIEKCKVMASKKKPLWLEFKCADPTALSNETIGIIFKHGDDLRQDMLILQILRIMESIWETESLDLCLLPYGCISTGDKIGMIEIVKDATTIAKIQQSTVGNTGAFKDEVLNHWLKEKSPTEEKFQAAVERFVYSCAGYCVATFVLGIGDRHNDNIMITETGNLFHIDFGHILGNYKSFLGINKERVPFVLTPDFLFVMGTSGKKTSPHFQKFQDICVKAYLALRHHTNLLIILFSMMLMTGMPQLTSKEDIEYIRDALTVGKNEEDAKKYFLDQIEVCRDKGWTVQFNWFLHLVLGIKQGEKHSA
T1 sequence (Q8WYR1 whole entry partner, species assumed): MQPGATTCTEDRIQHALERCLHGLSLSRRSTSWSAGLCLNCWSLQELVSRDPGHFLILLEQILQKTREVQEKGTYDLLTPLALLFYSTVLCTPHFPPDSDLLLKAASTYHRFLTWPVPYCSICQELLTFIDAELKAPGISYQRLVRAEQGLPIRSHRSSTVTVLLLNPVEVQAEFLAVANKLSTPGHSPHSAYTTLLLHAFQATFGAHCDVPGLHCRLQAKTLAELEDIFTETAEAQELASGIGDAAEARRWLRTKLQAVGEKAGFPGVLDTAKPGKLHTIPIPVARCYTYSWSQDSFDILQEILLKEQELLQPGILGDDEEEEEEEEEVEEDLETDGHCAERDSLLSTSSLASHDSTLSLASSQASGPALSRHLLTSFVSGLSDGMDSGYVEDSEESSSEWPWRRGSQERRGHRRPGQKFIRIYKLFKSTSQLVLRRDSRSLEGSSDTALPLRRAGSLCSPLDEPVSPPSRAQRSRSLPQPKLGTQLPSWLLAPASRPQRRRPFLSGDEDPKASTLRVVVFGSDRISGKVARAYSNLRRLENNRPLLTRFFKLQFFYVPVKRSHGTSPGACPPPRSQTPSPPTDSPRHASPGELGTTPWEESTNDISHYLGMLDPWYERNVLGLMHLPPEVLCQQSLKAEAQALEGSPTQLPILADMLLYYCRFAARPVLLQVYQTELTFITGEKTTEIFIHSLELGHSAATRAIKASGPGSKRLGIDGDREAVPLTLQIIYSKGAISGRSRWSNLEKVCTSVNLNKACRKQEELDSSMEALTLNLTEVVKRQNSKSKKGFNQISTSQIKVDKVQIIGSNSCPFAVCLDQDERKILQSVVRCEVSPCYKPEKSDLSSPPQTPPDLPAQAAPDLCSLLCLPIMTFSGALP

In general, IC50 refers to the concentration at which inhibition is half-maximal. Take `CC(C)N(CCCN1C(=O)COc2c(F)cc(C=C3SC(=S)NC3=O)cc21)C(C)C` [Example 245, 4-(3-Diisopropylamino-propyl)-8-fluoro-6-(4-oxo-2-thioxo-thiazolidin-5-ylidenemethyl)-4H-benzo[1,4]oxazin-3-one]: the IC50 stood at 185 nM.
For `O=C1NC(=O)C(=Cc2ccc3c(c2)N(Cc2ccc(Cl)c(Cl)c2)C(=O)CO3)S1` [Example 246, 5-[4-(3,4-Dichloro-benzyl)-3-oxo-3,4-dihydro-2H-benzo[1,4]oxazin-6-ylmethylene]-thiazolidine-2,4-dione] the value was 3 nM.
Turning to `CC(C)(C)c1cc(CN2C(=O)COc3ccc(C=C4OC(=S)NC4=O)cc32)cc(C(C)(C)C)c1` [Example 247, 4-(3,5-Di-tert-butyl-benzyl)-6-(4-oxo-2-thioxo-oxazolidin-5-ylidenemethyl)-4H-1,4-benzoxazin-3-one], the IC50 came to 10 nM.
For `CC(=O)Oc1ccc(CN2C(=O)COc3ccc(C=C4SC(=S)NC4=O)cc32)cc1` [Example 248, Acetic acid 4-[3-oxo-6-(4-oxo-2-thioxo-thiazolidin-5-ylidenemethyl)-2,3-dihydro-1,4-benzoxazin-4-ylmethyl]-phenyl ester], the half-inhibitory concentration (IC50) was determined as 21 nM.
Regarding `O=C1NC(=O)C(=Cc2ccc3c(c2)N(Cc2ccc(OCc4ccccc4)cc2)C(=O)CO3)S1` [Example 249, 5-[4-(4-Benzyloxy-benzyl)-3-oxo-3,4-dihydro-2H-1,4-benzoxazin-6-ylmethylene]-thiazolidine-2,4-dione], the IC50 is 8 nM.
As to `CC(C)(C)C1CC(CN2C(=O)COc3ccc(C=C4SC(=S)NC4=O)cc32)CC(C(C)(C)C)C1` (stereo not shown) [Example 250, 4-(3,5-Di-tert-butyl-cyclohexylmethyl)-6-(4-oxo-2-thioxo-thiazolidin-5-ylidenemethyl)-4H-1,4-benzoxazin-3-one], the half-inhibitory concentration (IC50) was determined as 175 nM.
For `Cc1cc(CN2CCN(C)CC2)cc(CN2C(=O)COc3ccc(C=C4SC(=O)NC4=O)cc32)c1` [Example 251, 5-{4-[3-Methyl-5-(4-methyl-piperazin-1-ylmethyl)-benzyl]-3-oxo-3,4-dihydro-2H-1,4-benzoxazin-6-ylmethylene}-thiazolidine-2,4-dione], the concentration for half-maximal inhibition (IC50) was 25 nM.
As for `CC(C)S(=O)(=O)c1cccc(CN2C(=O)COc3ccc(C=C4SC(=O)NC4=O)cc32)c1` [Example 252, 5-{3-Oxo-4-[3-(propane-2-sulfonyl)-benzyl]-3,4-dihydro-2H-1,4-benzoxazin-6-ylmethylene}-thiazolidine-2,4-dione], the IC50 came to 21 nM.
For the molecule `CC(C)S(=O)(=O)c1cccc(CN2C(=O)COc3ccc(C=C4SC(=S)NC4=O)cc32)c1` [Example 253, 6-(4-Oxo-2-thioxo-thiazolidin-5-ylidenemethyl)-4-[3-(propane-2-sulfonyl)-benzyl]-4H-1,4-benzoxazin-3-one], the concentration for half-maximal inhibition (IC50) was 16 nM.
Regarding `CC(C)Sc1cccc(CN2C(=O)COc3ccc(C=C4SC(=S)NC4=O)cc32)c1` [Example 254, 4-(3-Isopropylsulfanyl-benzyl)-6-(4-oxo-2-thioxo-thiazolidin-5-ylidenemethyl)-4H-1,4-benzoxazin-3-one], the IC50 worked out at 10 nM.
For `Cc1cc(CN2CCN(C)CC2)cc(CN2C(=O)COc3ccc(C=C4SC(=S)NC4=O)cc32)c1` [Example 255, 4-[3-Methyl-5-(4-methyl-piperazin-1-ylmethyl)-benzyl]-6-(4-oxo-2-thioxo-thiazolidin-5-ylidenemethyl)-4H-1,4-benzoxazin-3-one] the value was 15 nM; for `CN(C)S(=O)(=O)c1cccc(CN2C(=O)COc3ccc(C=C4SC(=O)NC4=O)cc32)c1` [Example 256, 3-[6-(2,4-Dioxo-thiazolidin-5-ylidenemethyl)-3-oxo-2,3-dihydro-1,4-benzoxazin-4-ylmethyl]-N,N-dimethyl-benzenesulfonamide], 20 nM; for `O=C1NC(=S)SC1=Cc1ccc2c(c1)N(Cc1cccc(S(=O)(=O)N3CCOCC3)c1)C(=O)CO2` [Example 257, 4-[3-(Morpholine-4-sulfonyl)-benzyl]-6-(4-oxo-2-thioxo-thiazolidin-5-ylidenemethyl)-4H-1,4-benzoxazin-3-one], 28 nM.

Source of the values: patent US7205295B2, “Benzoxazin-3-ones and derivatives thereof as therapeutic agents” (Warner-Lambert Company LLC, priority 2002, dated 2007).
